Here are results for three compounds from patent US7049289B1, “Labelled glutamine and lysine analogues” (Amersham PLC, priority 1998, dated 2006).

Data set [1] concerns the target T1, fibrin (in vitro human plasma clot) (Homo sapiens, UniProt P02671+P02675+P02679).
T1 construct: about 400 μl of human plasma containing the radiolabelled substrate; from tissue; host or cells: human plasma, clotted in vitro with added thrombin and calcium chloride
T1 sequence (P02671 20-644 isoform P02671-2 limits assumed): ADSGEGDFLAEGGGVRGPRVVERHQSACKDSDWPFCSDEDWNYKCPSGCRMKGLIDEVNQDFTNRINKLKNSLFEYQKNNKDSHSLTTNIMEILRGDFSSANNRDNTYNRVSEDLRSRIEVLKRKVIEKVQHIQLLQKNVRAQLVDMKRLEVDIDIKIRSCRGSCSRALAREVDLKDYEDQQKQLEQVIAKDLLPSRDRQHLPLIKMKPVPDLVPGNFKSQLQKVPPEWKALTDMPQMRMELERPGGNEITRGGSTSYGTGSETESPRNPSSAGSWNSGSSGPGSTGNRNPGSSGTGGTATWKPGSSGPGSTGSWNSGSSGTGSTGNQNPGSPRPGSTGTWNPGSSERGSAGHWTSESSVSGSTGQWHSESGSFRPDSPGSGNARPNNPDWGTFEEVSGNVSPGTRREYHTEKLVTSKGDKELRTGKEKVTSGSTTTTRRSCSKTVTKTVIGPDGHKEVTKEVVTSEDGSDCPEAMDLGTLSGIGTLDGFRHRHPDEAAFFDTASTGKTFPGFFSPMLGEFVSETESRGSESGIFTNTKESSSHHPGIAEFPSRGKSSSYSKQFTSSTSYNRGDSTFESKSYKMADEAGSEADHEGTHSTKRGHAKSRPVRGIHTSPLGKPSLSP
T1 sequence (P02675 45-491 limits assumed): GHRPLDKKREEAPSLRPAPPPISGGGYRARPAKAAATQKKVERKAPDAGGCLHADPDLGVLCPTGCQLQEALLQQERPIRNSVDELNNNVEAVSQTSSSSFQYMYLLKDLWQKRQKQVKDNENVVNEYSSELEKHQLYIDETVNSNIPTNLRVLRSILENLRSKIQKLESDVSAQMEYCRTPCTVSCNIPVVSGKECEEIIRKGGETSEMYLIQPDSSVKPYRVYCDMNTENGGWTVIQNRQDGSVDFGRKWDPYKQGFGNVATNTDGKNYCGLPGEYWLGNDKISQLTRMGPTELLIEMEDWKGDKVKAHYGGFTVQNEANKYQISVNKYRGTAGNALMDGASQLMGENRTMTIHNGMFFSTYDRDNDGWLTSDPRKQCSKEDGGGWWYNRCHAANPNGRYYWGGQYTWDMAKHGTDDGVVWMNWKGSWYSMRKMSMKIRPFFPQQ
T1 sequence (P02679 27-437 isoform P02679-2 limits assumed): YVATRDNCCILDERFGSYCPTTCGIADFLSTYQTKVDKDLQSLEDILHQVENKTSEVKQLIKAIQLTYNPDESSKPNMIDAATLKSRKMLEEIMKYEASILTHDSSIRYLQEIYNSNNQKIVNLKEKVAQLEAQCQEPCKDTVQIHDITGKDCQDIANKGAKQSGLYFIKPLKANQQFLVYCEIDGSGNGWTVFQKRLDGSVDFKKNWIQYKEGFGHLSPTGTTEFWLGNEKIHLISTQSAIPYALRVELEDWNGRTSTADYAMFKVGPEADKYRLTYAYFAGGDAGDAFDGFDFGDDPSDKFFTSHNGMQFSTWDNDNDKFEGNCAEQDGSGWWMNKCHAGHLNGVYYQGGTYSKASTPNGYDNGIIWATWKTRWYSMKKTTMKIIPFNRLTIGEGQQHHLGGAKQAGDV
Nature of the data set: Incorporation into human plasma clots in vitro. It is filed as biochemical. The note with it: for % specific uptake: % retained (with thrombin) - % retained (no thrombin); for % retained (no thrombin): control without thrombin and calcium chloride (non-specific binding); for % retained (with thrombin): human plasma clot, 60 minutes, ca. 20° C. In a few lines: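 Human plasma containing radiolabelled substrate (typically 10 kBq/ml) clotted with thrombin in Tris-saline pH 7.5 with 4 mM CaCl2, 60 min at ca. 20 °C, then stopped with cold EDTA. Clots collected on nitrocellulose filters and washed; incorporation is filter-retained radioactivity fraction minus non-specific binding from thrombin/calcium-free controls.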

Data set [2] is described as follows: In vitro plasma stability (rat plasma).
Procedure: (§1) To a portion of compound (50 μl, 10 MBq/ml) was added an equal volume of plasma (rat or human) or saline. The mixtures were incubated at 37° C. and the stability measured by HPLC (system C) at 0, 30 and 120 minutes. The saline dilution acted as a control.
Data set [3] in a line: In vitro plasma stability (human plasma).
Procedure: as §1
Data set [4] in a line: Incorporation into clots induced in a rat model (rat inferior vena cava model). The format is in vivo, rat (Male Wistar). The note with it: for % id/g (clot) / Rel. Conc. (cpm/g of clot by dose/g animal): sacrificed after 60 min. Summed up:
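Male Wistar rats (250–350 g) under 15% urethane anaesthesia, with the vena cava isolated by laparotomy. Compounds given 5 min (fresh clot) or 60 min (aged clot) after clot induction; clot, blood, lung and heart removed 60 min later, weighed and counted. Uptake expressed as cpm/g clot per dose/g animal and as clot-to-background tissue ratio.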

The conditions of data set [5]: human, plasma, 2 h.
Procedure: as §1
The conditions of data set [6]: rat, plasma, 2 h.
Procedure: as §1
A short description of data set [7]: Imaging of clots induced in a rat model (jugular vein). The format is in vivo, rat (male Wistar). As to conditions: planar gamma camera images 15–180 min p.i. The method, then:
Clots were induced in male Wistar rats (250–350 g) as described in Example 17, with the exception that for these experiments the platinum wire was located in the jugular vein. The compounds were injected 60 min […] and planar images acquired between 15–180 min p.i. A Park medical Isocam I gamma camera was used for these experiments, 300K or 150K counts were of the thorax were collected using a LEUHR or a LEPH collimator. Clots were visualised from 15 min p.i.

The conditions of data set [8]: ^125I radiolabelled; cited from earlier work.
Where [9] appears, read: Aged Clots: injected 60 min post-induction.
Where [10] appears, read: Fresh Clots: injected 5 min post-induction.

Read-outs that look alike come from different tables or passages of the source. Where a SMILES comes first, the peptide text is derived from it. The star is where a group is joined. X1 = CC(=NO)C(C)(C)NCC(C)(CNC(C)(C)C(C)=NO)CN*; Cbz = O=C(OCc1ccccc1)* A value given as a limit tells only on which side of the number the result lay.

With `CC(=NO)C(C)(C)NCC(C)(CNC(=O)CNC(=O)[C@H](CCCCN)NC(=O)[C@H](CC(C)C)NC(=O)[C@H](CC(C)C)NC(=O)[C@@H](NC(=O)[C@H](Cc1ccc(O)cc1)NC(=O)[C@@H]1CCCN1C(=O)[C@H](CO)NC(=O)[C@@H](NC(=O)[C@H](CCC(N)=O)NC(=O)[C@H](CCC(=O)O)NC(=O)[C@H](CCC(N)=O)NC(=O)[C@H](CC(N)=O)NC(=O)OCc1ccccc1)C(C)C)[C@@H](C)O)CNC(C)(C)C(C)=NO` (stereo partly drawn) [^99mTc-Cmpd 7, metal not drawn] (Cbz-NQEQVSPYTLLKG-X1; C-terminus assumed), in data set [1], the “% specific uptake” value is reported as 40.6%, the “% retained (no thrombin)” value came out at 0.7% and the “% retained (with thrombin)” value amounted to 41.3%. Besides, in data set [2], the fraction remaining at 2 h was greater than 90%. Further, the fraction remaining at 2 h in data set [3] was greater than 90%. Also, in data set [4] (Aged Clots), the Clot/blood came to 9, the Clot/heart was determined as 15, the Clot/liver came out at 3 and the Clot/lung was 7. Further, in data set [4] (setting [9]), the “% id/g (clot)” value came out at 2.1 ± 0.3 % id/g and the “Rel. Conc. (cpm/g of clot by dose/g animal)” value was found to be 6.5 ± 1.3. In data set [4] (Fresh Clots), this compound returned a Clot/blood of 15, a Clot/heart of 21, a Clot/liver of 6 and a Clot/lung of 11. Further, in data set [4] (setting [10]), the “% id/g (clot)” value amounted to 4.8 ± 1.3 % id/g and the “Rel. Conc. (cpm/g of clot by dose/g animal)” value is 14.5 ± 4.4.

For “Ac-NQEQVSPYTLLKG-Pn216 (also: 99mTc complex) [^99mTc-Cmpd 5]”, in data set [1], the “% specific uptake” value is given as 35.3%, the “% retained (no thrombin)” value came out at 0.2% and the “% retained (with thrombin)” value is recorded as 35.5%. Also, the “% intact at 120 mins” value in data set [5] is recorded as greater than 90%. Moreover, in data set [6], the “% intact at 120 mins” value is listed as greater than 90%. For the same compound, the “suitability for imaging clots (in words)” value in data set [7] was “suitable for imaging clots”. Moreover, in data set [4] (Aged Clots), the Clot/blood is on record as 13, the Clot/heart is 33, the Clot/liver amounted to 24 and the Clot/lung is 31. Besides, in data set [4] (setting [9]), the “% id/g (clot)” value is reported as 3.6 ± 1.7 % id/g and the “Rel. Conc. (cpm/g of clot by dose/g animal)” value is recorded as 11 ± 5.1. In data set [4] (Fresh Clots), this compound yielded a Clot/blood of 21, a Clot/heart of 51, a Clot/liver of 43 and a Clot/lung of 23. In addition, in data set [4] (setting [10]), the “% id/g (clot)” value came to 6.0 ± 2.1 % id/g and the “Rel. Conc. (cpm/g of clot by dose/g animal)” value is reported as 16 ± 5.8.

In the case of “NQEQVSPYTLTLLK [synthetic analogue of the alpha-2 antiplasmin N-terminal peptide, WO 89/00051]”, in data set [8], the “uptake in thrombin clots in vitro (in words)” value is listed as “taken up in thrombin clots in vitro”.

In general, share remaining refers to what is left of the initial amount, in per cent.
